Measurements published in patent publication US12509460B2 (Skyhawk Therapeutics, Inc., priority 2019, dated 2025).
Read-outs that look alike come from different tables or passages of the source.

Legend:
[1] = system: SMN FL and SMN Δ7 in spinal muscular atrophy (SMA) patient fibroblasts (GM03813, Coriell); test: Quantitative splicing assay (SMN), qPCR; type: cell-based, human; conditions: read-out: SMN2 Splicing FL EC50
Experimental: Spinal muscular atrophy (SMA) patient fibroblasts (GM03813, Coriell) are plated in 96-well plates at 50,000 cells/well. […] Treated cells are lysed and cDNA synthesized using the Fast Advanced Cells-to-Ct kit (Thermofisher A35378) according to the manufacturer's instructions. 2 μL of each cDNA are used in qPCR reactions. […] Reactions are run in a Quant Studio 6 qPCR instrument with default settings.

[2] = system: mHTT protein in GM04724 (CAG 70/20) Huntington's disease patient lymphoblast cells; test: mHTT protein assay, 2B7-MW1 assay via Mesoscale Discovery (MSD); type: cell-based, human
Outline: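 Signal from the 2B7-MW1 antibody pair on MSD, rising with polyQ length and smaller HTT fragments, measured mHTT after 48 h compound exposure (0.6 nM–10 μM) in GM04724 cells. A parallel replicate plate gave CellTiter Glo viability.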

[3] = Quantitative splicing assay (HTT), qPCR; type: cell-based, human; conditions: Homo sapiens, GM04724, 24 h, GM04724 lymphoblasts, read-out: HTT Splicing: E49-50 EC50
Experimental: Example A9: Quantitative Splicing Assay (HTT)
GM04724 (CAG 70/20) Huntington's disease patient lymphoblasts (Coriell) are plated in 96-well v-bottom plates at 50,000 cells/well. Immediately after plating, cells are dosed with compound for 24 h at concentrations ranging from 2.5 uM to 0.15 nM (0.1% DMSO). Treated cells are lysed and cDNA synthesized using the Fast Advanced Cells-to-Ct kit (Thermofisher A35378) according to the manufacturer's instructions. 2 uL of each cDNA are used in qPCR reactions to confirm the compound-induced inclusion of a cryptic exon within intron 49 of the Huntingtin (HTT) transcripts. The qPCR reactions are prepared in 384-well plates in 10 uL volume, using TagMan™ Fast Advanced Master Mix [ThermoFisher, 4444965] with primers and probes shown in the table below. Reactions are run in a Quant studio 6 qPCR instrument with default settings.

[4] = system: SMN protein in spinal muscular atrophy (SMA) patient fibroblasts (GM03813, Coriell); test: SMN protein assay, Mesoscale Discovery (MSD); type: cell-based, human; conditions: for EC50: read-out: SMN2 protein EC50
Outline: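 Absolute SMN levels were quantified by MSD against an SMN protein standard curve (1 μg/ml to 19.5 pg/ml) run on each plate. Samples were lysates of GM03813 patient fibroblasts (7000 cells/well) treated 48 hours with compound doses from 2.5 μM down to 0.6 nM.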

[5] = system: MDR1-MDCK cell monolayers; test: Blood-brain-barrier (BBB) penetration potential via MDCK-MDR1 permeability assay
MDR1 (P-gp) = test: as above; conditions: dog; for Papp A→B at 120 min, 5 μM: MDCK-MDR1, pH 7.4, MDCK-MDR1: Papp A-B; for Papp B→A at 120 min, 5 μM: MDCK-MDR1, pH 7.4, MDCK-MDR1: Papp B-A
MDR1 = test: as above; conditions: dog, MDCK-MDR1, pH 7.4, MDCK-MDR1: Efflux
[6] = Homo sapiens, Fibroblast, 24 h, SMA patient fibroblasts GM03813, 24 h, qPCR
[7] = GM04724 Huntington's disease patient lymphoblasts
[8] = SMA patient fibroblasts GM03813, 48 hours, MSD
[9] = Homo sapiens, Fibroblast, 24 h, SMA patient fibroblasts (GM03813), 24 h
[10] = GM04724 (CAG 70/20) Huntington's disease patient lymphoblasts
[11] = SMA patient fibroblasts (GM03813), 48 hours

Compound | EC50 [1, 6] [nM] | EC50 [2, 7] [nM] | EC50 ([3]; qPCR) [nM] | EC50 [4, 8] [nM] | MDCK-MDR1: % Recov A-B ([5]; A-B direction) [%] | MDCK-MDR1: % Recov B-A ([5]; B-A direction) [%] | Papp A→B at 120 min, 5 μM (MDR1 (P-gp); A-B direction) [×10⁻⁶ cm/s] | Papp B→A at 120 min, 5 μM (MDR1 (P-gp); B-A direction) [×10⁻⁶ cm/s] | efflux ratio at 120 min, 5 μM (MDR1; efflux ratio) | further results
CN(c1ccc(-c2ccc(-c3nnco3)cc2O)nn1)[C@H]1C[C@@H]2CC[C@@H](N2)[C@H]1F [Compound 44B, 2-(6-(((1R,2R,3S,5S)-2-fluoro-8-azabicyclo[3.2.1]octan-3-yl)(methyl)amino)pyridazin-3-yl)-5-(1,3,4-oxadiazol-2-yl)phenol] | 0.01 to 15 | 0.01 to 15 | 0.01 to 15 | 16 to 50 | 91 | 92 | 8.2 | 54.7 | 7 | 
CN(c1ccc(-c2cc3cnccc3cc2O)nn1)[C@H]1C[C@@H]2CCC[C@@H](N2)[C@H]1F [Compound 121B, 7-(6-(((1R,2R,3S,5S)-2-fluoro-9-azabicyclo[3.3.1]nonan-3-yl)(methyl)amino)pyridazin-3-yl)isoquinolin-6-ol] |  |  |  |  |  |  |  |  |  | EC50 [1, 9]: 0.01 to 15 nM; EC50 [2, 10]: 0.01 to 15 nM; EC50 [3]: 0.01 to 15 nM; EC50 [4, 11]: 0.01 to 15 nM; MDCK-MDR1: % Recov A-B ([5]; A-B): 83%; MDCK-MDR1: % Recov B-A ([5]; B-A): 111%; Papp A→B at 120 min, 5 μM (MDR1 (P-gp); A-B): 4.47 ×10⁻⁶ cm/s; Papp B→A at 120 min, 5 μM (MDR1 (P-gp); B-A): 39.5 ×10⁻⁶ cm/s; efflux ratio at 120 min, 5 μM (MDR1): 9
CN(c1ccc(-c2cc3nccnc3cc2O)nn1)[C@H]1C[C@@H]2CC[C@@H](N2)[C@H]1F [Compound 88B, 7-(6-(((1R,2R,3S,5S)-2-fluoro-8-azabicyclo[3.2.1]octan-3-yl)(methyl)amino)pyridazin-3-yl)quinoxalin-6-ol] | 16 to 50 | 16 to 50 | 16 to 50 | 0.01 to 15 | 84 | 93 | 6.88 | 50.5 | 7 | 
Cc1nc2cc(-c3ccc(N(C)[C@H]4C[C@@H]5CC[C@@H](N5)[C@H]4F)nn3)c(O)cc2s1 [Compound 115B, 5-(6-(((IR,2R,3S,5S)-2-fluoro-8-azabicyclo[3.2.1]octan-3-yl)(methyl)amino)pyridazin-3-yl)-2-methylbenzo[d]thiazol-6-ol] |  |  |  |  |  |  |  |  |  | EC50 [1, 9]: 0.01 to 15 nM; EC50 [2, 10]: 0.01 to 15 nM; EC50 [3]: 0.01 to 15 nM; EC50 [4, 11]: 0.01 to 15 nM; MDCK-MDR1: % Recov A-B ([5]; A-B): 71%; MDCK-MDR1: % Recov B-A ([5]; B-A): 88%; Papp A→B at 120 min, 5 μM (MDR1 (P-gp); A-B): 6.4 ×10⁻⁶ cm/s; Papp B→A at 120 min, 5 μM (MDR1 (P-gp); B-A): 42.6 ×10⁻⁶ cm/s; efflux ratio at 120 min, 5 μM (MDR1): 7
CN(c1ccc(-c2cc3ncccc3cc2O)nn1)[C@@H]1C[C@H]2CCC[C@H](N2)[C@@H]1F [Compound 78A, 7-(6-(((1S,2S,3R,5R)-2-fluoro-9-azabicyclo[3.3.1]nonan-3-yl)(methyl)amino)pyridazin-3-yl)quinolin-6-ol] | 51 to 100 | 16 to 50 | 16 to 50 | 16 to 50 | 74 | 89 | 2.19 | 50.5 | 23 | 
CN(c1ccc(-c2cc3cccnc3cc2O)nn1)[C@@H]1C[C@H]2CCC[C@H](N2)[C@@H]1F [Compound 41A, 6-(6-(((1S,2S,3R,5R)-2-fluoro-9-azabicyclo[3.3.1]nonan-3-yl)(methyl)amino)pyridazin-3-yl)quinolin-7-ol] | 16 to 50 | 0.01 to 15 | 51 to 100 | 0.01 to 15 | 64 | 98 | 2 | 48.1 | 24 | 
CN(c1ccc(-c2cc3cnn(C)c3cc2O)nn1)[C@H]1C[C@@H]2CC[C@@H](N2)[C@H]1F [Compound 76B, 5-(6-(((1R,2R,3S,5S)-2-fluoro-8-azabicyclo[3.2.1]octan-3-yl)(methyl)amino)pyridazin-3-yl)-1-methyl-1H-indazol-6-ol] | 16 to 50 | 0.01 to 15 | 16 to 50 | 0.01 to 15 | 84 | 93 | 3.97 | 60.3 | 15 | 
CN(c1ccc(-c2cc3c(=O)n(C)cnc3cc2O)nn1)[C@H]1C[C@@H]2CC[C@@H](N2)[C@H]1F [Compound 85B, 6-(6-(((1R,2R,3S,5S)-2-fluoro-8-azabicyclo[3.2.1]octan-3-yl)(methyl)amino)pyridazin-3-yl)-7-hydroxy-3-methylquinazolin-4(3H)-one] | 0.01 to 15 | 0.01 to 15 | 0.01 to 15 | 0.01 to 15 | 98 | 103 | 0.71 | 48.5 | 68 | 
C#Cc1ccc(-c2ccc(N(C)[C@@H]3C[C@H]4CC[C@H](N4)[C@@H]3F)nn2)c(O)c1 [Compound 10A, 5-ethynyl-2-(6-(((1S,2S,3R,5R)-2-fluoro-8-azabicyclo[3.2.1]octan-3-yl)(methyl)amino)pyridazin-3-yl)phenol] | 0.01 to 15 | 0.01 to 15 | 0.01 to 15 | 0.01 to 15 | 55 | 67 | 11.6 | 19 | 2 | 
CN(c1ccc(-c2ccc(-n3ccnn3)cc2O)nn1)[C@H]1C[C@@H]2CCC[C@@H](N2)[C@H]1F [Compound 62B, 2-(6-(((1R,2R,3S,5S)-2-fluoro-9-azabicyclo[3.3.1]nonan-3-yl)(methyl)amino)pyridazin-3-yl)-5-(1H-1,2,3-triazol-1-yl)phenol] | 0.01 to 15 | 0.01 to 15 | 0.01 to 15 | 0.01 to 15 | 82 | 80 | 3.18 | 59.8 | 19 | 
COc1cc(-c2ccc(-c3ccc(N(C)[C@H]4CC5N[C@@H](C4)CC5(F)F)nn3)c(O)c2)cnn1 (single isomer, unassigned) [Compound 2B] |  | 0.01 to 15 | 0.01 to 15 |  | 54 | 84 |  |  |  | EC50 ([1]; SMA patient fibroblasts GM03813, 24 h, qPCR): 0.01 to 15 nM; SMN2 protein EC50 [4, 8]: E (501 ≤ E ≤ 10.000); MDCK-MDR1: Papp A-B ([5]; A-B direction): 9.99 10^−6, cm/s; MDCK-MDR1: Papp B-A ([5]; B-A direction): 52.8 10^−6, cm/s; MDCK-MDR1: Efflux ([5]; efflux ratio): 5
Cc1nc2cc(O)c(-c3ccc(N(C)[C@H]4C[C@@H]5CC[C@@H](N5)[C@H]4F)nn3)cc2o1 (single isomer, unassigned) [Compound 40B] | 16 to 50 | 0.01 to 15 | 0.01 to 15 |  | 67 | 99 | 4.71 | 75.8 | 16 | 
CN(c1ccc(-c2cc3cnccc3cc2O)nn1)[C@@H]1C[C@H]2CCC[C@H](N2)[C@@H]1F [Compound 121A, 7-(6-(((1S,2S,3R,5R)-2-fluoro-9-azabicyclo[3.3.1]nonan-3-yl)(methyl)amino)pyridazin-3-yl)isoquinolin-6-ol] |  |  |  |  |  |  |  |  |  | EC50 [2, 10]: 16 to 50 nM; EC50 [3]: 51 to 100 nM; SMN2 protein EC50 [4, 11]: E (501 ≤ E ≤ 10.000); MDCK-MDR1: % Recov A-B ([5]; A-B): 81%; MDCK-MDR1: % Recov B-A ([5]; B-A): 95%; Papp A→B at 120 min, 5 μM (MDR1 (P-gp); A-B): 2.65 ×10⁻⁶ cm/s; Papp B→A at 120 min, 5 μM (MDR1 (P-gp); B-A): 29.8 ×10⁻⁶ cm/s; efflux ratio at 120 min, 5 μM (MDR1): 11
